Where only a bound is given, the exact number is not on record here.

The first assay concerns the target T1, P2X7 receptor (Homo sapiens, UniProt Q99572).
T1 construct: host or cells: SH-SY5Y
T1 sequence (Q99572 1-595): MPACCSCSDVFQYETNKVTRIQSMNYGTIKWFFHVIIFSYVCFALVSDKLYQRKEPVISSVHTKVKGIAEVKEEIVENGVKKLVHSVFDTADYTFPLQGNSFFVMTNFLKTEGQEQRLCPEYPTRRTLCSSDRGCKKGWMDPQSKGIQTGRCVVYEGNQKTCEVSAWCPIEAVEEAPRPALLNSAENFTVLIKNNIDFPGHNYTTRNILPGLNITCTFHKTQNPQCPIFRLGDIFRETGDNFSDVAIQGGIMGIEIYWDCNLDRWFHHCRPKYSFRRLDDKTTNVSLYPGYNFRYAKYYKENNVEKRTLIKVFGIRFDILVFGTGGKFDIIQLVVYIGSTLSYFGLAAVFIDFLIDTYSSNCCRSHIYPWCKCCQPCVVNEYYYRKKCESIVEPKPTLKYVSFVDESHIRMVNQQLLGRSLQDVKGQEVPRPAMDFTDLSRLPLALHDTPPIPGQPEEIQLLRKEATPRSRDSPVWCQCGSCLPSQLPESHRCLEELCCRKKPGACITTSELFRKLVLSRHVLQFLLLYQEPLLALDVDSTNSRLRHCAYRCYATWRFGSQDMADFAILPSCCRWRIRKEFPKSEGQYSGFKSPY
Put plainly: P2X7 calcium mobilization assay, high throughput, antagonist activity (Example 4A). In kind it is cell-based.
Conditions: not given
A digest of the protocol:
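Cells plated at 100,000/well the day before were dye-loaded for 1 h, then incubated 1 h at room temperature with test compound before agonist-triggered calcium mobilization was read on FLIPR Tetra. Maximum RFU was corrected by subtracting the no-agonist control and related to the agonist-control response.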
On the technique in general: Calcium assays in cells follow changes in intracellular calcium, usually with a dye or a luminescent sensor.
Consider `O=C(NCC12CC3CC(CC(C3)C1)C2)c1cccc2nc(CO)cn12` [Compound 3, N-(adamantan-1-ylmethyl)-2-(hydroxymethyl)imi-dazo[1,2-a]pyridine-5-carboxamide], for which the IC50 (commonly the point on the concentration scale where inhibition reaches its midpoint) is below 2000 nM.

Regarding `CCCN(CCC)C(=O)c1cn2c(C(=O)NC[C@@H]3CC[C@H]4C[C@@H]3C4(C)C)cccc2n1` [Compound 476, 5-N-{[(1S,2R,5S)-6,6-dimethylbicyclo[3.1.1]hept-2-yl]methyl}-2-N,2-N-dipropylimidazo[1,2-a]pyridine-2,5-dicarboxamide], the IC50 was below 2000 nM. In the case of `O=C(NCC12CC3CC(CC(C3)C1)C2)c1cccc2nc(CCO)cn12` [Compound 6, N-(adamantan-1-ylmethyl)-2-(2-hydroxyethyl)imi-dazo[1,2-a]pyridine-5-carboxamide], the IC50 is below 2000 nM.

The same assay, now with this note: 50% decrease in the fluorescence response of cells exposed to 80 μM 2′(3′)-O-(4-benzoyl-benzoyl)adenosine 5′-triphosphate; Example 4A; read-out: IC50.
On to `C[C@@H]1CN(C(=O)c2cn3c(C(=O)NCC45CC6CC(CC(C6)C4)C5)cccc3n2)CCN1` [Compound 604, N-(adamantan-1-ylmethyl)-2-{[(3R)-3-methylpiperazin-1-yl]carbonyl}imidazo[1,2-a]pyridine-5-carboxamide], for which the IC50 was below 2000 nM.

Regarding `CC1(C)C2CC[C@H](CNC(=O)c3cccc4nc(CC(=O)N5CC[C@@H](N)C5)cn34)C1C2` (relative stereo) [Compound 549, rel-2-{2-[(3R)-3-aminopyrrolidin-1-yl]-2-oxoethyl}-N-{[(2S)-6,6-dimethylbicyclo[3.1.1]hept-2-yl]methyl}imidazo[1,2-a]pyridine-5-carboxamide], the 50% inhibitory concentration (IC50) was below 2000 nM. For `O=C(NCC12CC3CC(CC(C3)C1)C2)c1cccc2nc(CC(=O)N3CC[C@@H](O)C3)cn12` [Compound 531, N-(adamantan-1-ylmethyl)-2-{2-[(3R)-3-hydroxypyrrolidin-1-yl]-2-oxoethyl}imidazo[1,2-a]pyridine-5-carboxamide], the IC50 is below 2000 nM. Same read-out and setting: the figure for `O=C(NCC12CC3CC(CC(C3)C1)C2)c1cccc2nc(CN3CCS(=O)(=O)CC3)cn12` [Compound 537, N-(adamantan-1-ylmethyl)-2-[(1,1-dioxidothiomorpholin-4-yl)methyl]imidazo[1,2-a]pyridine-5-carboxamide] is below 2000 nM.

Take `CCCCN(CC)C(=O)c1cn2c(C(=O)NC[C@@H]3CC[C@H]4C[C@@H]3C4(C)C)cccc2n1` [Compound 475, 2-N-butyl-5-N-{[(1S,2R,5S)-6,6-dimethylbicyclo[3.1.1]hept-2-yl]methyl}-2-N-ethylimidazo[1,2-a]pyridine-2,5-dicarboxamide]: the concentration for half-maximal inhibition (IC50) is below 2000 nM. Turning to `CN(C(=O)Cc1cn2c(C(=O)NC[C@@H]3CC[C@@H]4C[C@H]3C4(C)C)cccc2n1)C1CCCNC1` (stereo partly drawn) [Compound 565, N-{[(1R,2R,5R)-6,6-dimethylbicyclo[3.1.1]hept-2-yl]methyl}-2-{2-[methyl(piperidin-3-yl)amino]-2-oxoethyl}imidazo[1,2-a]pyridine-5-carboxamide], the IC50 was below 2000 nM. Turning to `CC(C)[C@@H]1CNCCN1C(=O)c1cn2c(C(=O)NCC34CC5CC(CC(C5)C3)C4)cccc2n1` [Compound 613, N-(adamantan-1-ylmethyl)-2-{[(2R)-2-isopropylpiperazin-1-yl]carbonyl}imidazo[1,2-a]pyridine-5-carboxamido], the IC50 is below 2000 nM. For `CC1(C)[C@H]2CC[C@@H](CNC(=O)c3cccc4nc(C(=O)NC5(CO)CCCC5)cn34)[C@@H]1C2` [Compound 518, 5-N-{[(1S,2R,5S)-6,6-dimethylbicyclo[3.1.1]hept-2-yl]methyl}-2-N-[1-(hydroxymethyl)cyclopentyl] imidazo[1,2-a]pyridine-2,5-dicarboxamide], the IC50 is below 2000 nM.

Still in this assay, the particulars now being: 50% decrease in the fluorescence response of cells exposed to 80 μM of 2′(3′)-O-(4-benzoyl-benzoyl)adenosine 5′-triphosphate; Example 4A; read-out: IC50.
Turning to `CC(C)CC(CNC(=O)c1cccc2nc(CC(=O)N3CCSCC3)cn12)c1ccccc1` (stereo not drawn) [Compound 797, N-(4-methyl-2-phenylpentyl)-2-(2-oxo-2-thiomorpholin-4-ylethyl)imidazo [1,2-a]pyridine-5-carboxamide], the IC50 was below 2000 nM. `NC[C@H]1CCCN1C(=O)c1cn2c(C(=O)NCC34CC5CC(CC(C5)C3)C4)cccc2n1` [Compound 633, N-(adamantan-1-ylmethyl)-2-{[(2R)-2-(aminomethyl)pyrrolidin-1-yl]carbonyl}imidazo[1,2-a]pyridine-5-carboxamide]: the concentration for half-maximal inhibition (IC50) is below 2000 nM. On to `CCOC(=O)C(Cc1ccc(OC)cc1)c1cn2c(C(=O)NCC34CC5CC(CC(C5)C3)C4)cccc2n1` (stereo not drawn) [Compound 801, ethyl 2-{5-[(adamantan-1-ylmethyl)carbamoyl]imidazo[1,2-a]pyridin-2-yl}-3-(4-methoxyphenyl) propanoate], for which the IC50 is below 2000 nM. Consider `CC1(C)C2CC[C@H](CNC(=O)c3cccc4nc(CC(=O)N5CCSCC5)cn34)C1C2` (stereo partly drawn) [Compound 795, N-{[(2S)-6,6-dimethylbicyclo[3.1.1]hept-2-yl]methyl}-2-(2-oxo-2-thiomorpholin-4-ylethyl)imidazo[1,2-a] pyridine-5-carboxamide], for which the IC50 is below 2000 nM.

On to `NCC1CCCN1C(=O)c1cn2c(C(=O)NCC34CC5CC(CC(C5)C3)C4)cccc2n1` (stereo not drawn) [Compound 622, N-(adamantan-1-ylmethyl)-2-{[2-(aminomethyl)pyrrolidin-1-yl]carbonyl} imidazo[1,2-a]pyridine-5-carboxamide], for which the IC50 was below 2000 nM. As to `CC(C)CC(CNC(=O)c1cccc2nc(CN3CC[C@@H](N)C3)cn12)c1ccc(Cl)cc1` (stereo partly drawn) [Compound 762, 2-[(3-aminopyrrolidin-1-yl)methyl]-N-[2-(4-chlorophenyl)-4-methylpentyl] imidazo [1,2-a]pyridine-5-carboxamide], the IC50 is below 2000 nM. For `COCCN(C)C1CCN(C(=O)c2cn3c(C(=O)NCC45CC6CC(CC(C6)C4)C5)cccc3n2)CC1` [Compound 720, N-(adamantan-1-ylmethyl)-2-({4-[(2-methoxyethyl)(methyl)amino]piperidin-1-yl}carbonyl)imidazo[l, 2-a]pyridine-5-carboxamide], the half-inhibitory concentration (IC50) was below 2000 nM.

Still in this assay, the particulars now being: 50% decrease in the fluorescence response of cells exposed to 80 μM of 2′(3′)-O-(4-benzoyl-benzoyl)adenosine 5′-triphosphate; determined as in Example 4A; read-out: IC50.
As for `CC(C)CC(CNC(=O)c1cccc2nc(Cn3ccc(N)n3)cn12)c1ccc(Cl)cc1` (stereo not drawn) [Compound 834, 2-[(3-amino-1H-pyrazol-1-yl)methyl]-N-[2-(4-chlorophenyl)-4-methylpentyl] imidazo [1,2-a]pyridine-5-carboxamide], the IC50 was below 2000 nM. Turning to `O=C(NCC12CC3CC(CC(C3)C1)C2)c1cccc2nc(C(Cc3cccc(Cl)c3)C(=O)O)cn12` (stereo not drawn) [Compound 848, 2-{5-[(adamantan-1-ylmethyl)carbamoyl]imidazo[1,2-a]pyridin-2-yl}-3-(3-chlorophenyl) propanoic acid], the half-inhibitory concentration (IC50) was below 2000 nM.

Take `CC(O)CNC(=O)Cc1cn2c(C(=O)NCC3(c4ccc(Cl)cc4)CCCCC3)cccc2n1` (stereo not drawn) [Compound 858, N-{[1-(4-chlorophenyl)cyclohexyl]methyl}-2-{2-[(2-hydroxypropyl)amino]-2-oxoethyl} imidazo[1,2-a]pyridine-5-carboxamide]: the IC50 is below 2000 nM. `CC(C)CC(CNC(=O)c1cccc2nc(CNc3cc[nH]n3)cn12)c1ccc(Cl)cc1` (stereo not drawn) [Compound 835, N-[2-(4-chlorophenyl)-4-methylpentyl]-2-[(1H-pyrazol-3-ylamino)methyl] imidazo [1,2-a]pyridine-5-carboxamide]: the IC50 is below 2000 nM.

The assay is the same for the next values; noted with them: SH-SY5Y cells; 50% decrease in fluorescence response to 80 μM BzATP; read-out: IC50.
For the molecule `CC1(C)CCCN(C(=O)Cc2cn3c(C(=O)NCC45CC6CC(CC(C6)C4)C5)cccc3n2)C1` [Compound 185, N-(adamantan-1-ylmethyl)-2-[2-(3,3-dimethylpiperidin-1-yl)-2-oxoethyl]imidazo[1,2-a]pyridine-5-carboxamide], the IC50 was below 2000 nM. Consider `CC(C)NC(=O)Cc1cn2c(C(=O)NCC34CC5CC(CC(C5)C3)C4)cccc2n1` [Compound 150, N-(adamantan-1-ylmethyl)-2-[2-(isopropylamino)-2-oxoethyl]imidazo[1,2-a]pyridine-5-carboxamide], for which the IC50 is below 2000 nM. `N[C@H]1CCN(Cc2cn3c(C(=O)NCC45CC6CC(CC(C6)C4)C5)cccc3n2)C1` [Compound 188, N-(adamantan-1-ylmethyl)-2-{[(3S)-3-aminopyrrolidin-1-yl]methyl}imidazo[1,2-a]pyridine-5-carboxamide]: the IC50 is below 2000 nM.

The same assay, now with this note: fluorescence response of cells exposed to 80 μM 2′(3′)-O-(4-benzoyl-benzoyl)adenosine 5′-triphosphate; Example 4A; read-out: IC50.
As to `CN(CCO)C(=O)c1cn2c(NC(=O)CC34CC5CC(CC(C5)C3)C4)cccc2n1` [Compound 405, 5-[(adamantan-1-ylacetyl)amino]-N-(2-hydroxyethyl)-N-methylimidazo[1,2-a]pyridine-2-carboxamide], the IC50 is below 2000 nM. As for `CC1(C)[C@H]2CC[C@@H](CNC(=O)c3cccc4nc(C(=O)N5CC[C@H](N)C5)cn34)[C@@H]1C2` [Compound 330, 2-{[(3S)-3-aminopyrrolidin-1-yl]carbonyl}-N-{[(1S,2R,5S)-6.6-dimethylbicyclo{3.1.1]hept-2-yl]methyl}imidazo[1,2-a]pyridine-5-carboxamide], the IC50 was below 2000 nM.

The record behind these values is patent publication US8431593B2, “Heteroaryl amide derivatives” (H. Lundbeck A/S, priority 2006, dated 2013).
